# Laboratory results from patent US5614562A, “Method of treating drug resistant tumor cells using organoselenones” (The University of Sourthern California, priority 1992, dated 1997).
# How the values were obtained:
# [1] = assay type: physicochemical; conditions: FIG. 1 experiments
# HCT116 = assay: In vitro cytotoxicity, HCT116 human colon carcinoma; assay type: cell-based; conditions: Homo sapiens, HCT-116; data provided by Bristol-Myers Laboratories
# Source text: ^b Cell lines: HCT116 human colon (sensitive to VP16 and VM26)
# L1210/L-PAM = assay: Cytotoxicity, 48-hr exposure of L-PAM resistant L1210/L-PAM leukemia cells; assay type: cell-based, murine; conditions: 48-hr exposure
# Source text: (§1) Murine L1210 leukemia cells sensitive (L1210/0) and resistant (L1210/L-PAM)to L-phenylalanine mustard were obtained that are adaptable to either in vitro or in vivo passage.
# (§2) Broad resistance of the L1210/L-PAM cell line is shown by the approximately 4-fold and 9-fold increases in IC50, compared to L1210/0, for L-PAM and mechlorethamine, respectively (Comparative Examples 3 and 4). […].
# [2] = literature value; cited from earlier work
# HCT/VM46 = assay: In vitro cytotoxicity, VM26 resistant HCT/VM46 human colon carcinoma; assay type: cell-based
# Source text: | HCT/VM46 human colon, VM26 resistant
# HCT/VP35 = assay: In vitro cytotoxicity, VP16 resistant HCT/VP35 human colon carcinoma; assay type: cell-based
# Source text: | HCT/VP35 human colon, VP16 resistant
# [3] = system: P388 murine leukemia ascites cells; assay: In vivo growth inhibition of P388 leukemia ascites in mice; set-up: species or system murine; BDF1 mice
# Procedure: In FIG. 2 and Table II are shown the results of in vivo antitumor testing of 2-chloroethyl aryl selenones against murine P388 Leukemia ascites cells.
# Examples 5-8 consisted of the use of 2-chloroethyl 4-methoxy-phenyl selenone to treat the mice. Examples 9-12 were the same as example 5 except 2-chloroethyl phenyl selenone was employed.
# The maximally tolerated duration of the highest dose shown in FIG. 2 and Table II, 6 mg/kg/day i.p. of 2-chloroethyl phenyl selenone, was 10 days in a separate experiment. In the experiments shown, i.p. drug was administered for 5 consecutive days, Days 1-5, beginning the day after tumor inoculation (on Day 0).
# Mice were inoculated i.p. with 1×10^6 cells of P388 murine leukemia ascites passaged in BDF1 mice, in a volume of 0.1 ml. The selenones were formulated in normal (0.9%, w/v) NaCl for an injection volume of 0.3 ml. Control mice (12 in each group) received i.p. saline alone comparative examples 1 and 2. For each dose level and drug, 6 mice per group were used.
# The plateauing of weight increase, at Days 8-9, is consistent with classical Gompertizian tumor growth kinetics (Laird, A. K. Brit. J. Cancer 18:490-502, 1964). The delays observed in the time period before the onset of the exponential phase of weight increase are given in Table II, defined as the Growth Delay.
# ^a Calculated from Day at which weight first exceeded baseline (Day 0
# [4] = Swain-Scott product competition of nitrogen and oxygen nucleophiles vs NBP (second-order rate constant ratios); assay type: physicochemical
# Source text: (§3) The properties of nucleophilicity and electivity can be quantitatively expressed as n and s constants in the Swain-Scott linear free energy relationship. It has been shown that s and n constants of biological alkylating agents and nucleophiles, respectively, can be readily determined with high precision, using 4-(4-nitrobenzyl)pyridine (NBP) as a competitive substrate for alkyl product formation (Spears, C. P. Mol. Pharmacl.19:496-504,1981; Barbin,A.,Bereziat, A., O'Neill, I. K., and Bartsch, H. Chem.-Biol. Interact,73:261-277, 1990; Kang, S. I., and Spears,C. P. J. Med. Chem. 33:1544-1547, 1990). Broad-spectrum antitumor alkylating agents show uniformly high s constants Spears, C. P. Mol.Pharmacol. 19:496-504, 1981; in contrast, mutagenically efficient alkylating agents show low values (Peterson,A. R., Landolph, J. R., Peterson, H., Spears, C. P., and Heidelberger, C. Cancer Res. 41:3095-3099, 1981; Barbin, A., and Bartsch, H. Mut. Res.215:95-106, 1989).
# (§4) FIG. 1 is a Swain-Scott plot of the ratio of second-order rate constants, log (ky /knbp) for several model sulfur, nitrogen, and oxygen nucleophiles in their reactions with 2-chloroethyl 4-methoxy-phenyl selenone ("CEMOS"), vs. their published nucleophilicity nCH3 Br constants. Values of n were taken to be 2.72 for acetate (AcO--), 3.3 for ascorbate, 3.6 for pyridine, 4.0 for azide (N3), 3.94 for nitrite, 5.1 for thiol (SH), 6.18 for sulfite (SO3^2-), 6.36 for thiosulfate (S2 O3^2-), and 6.6 for thiophosphate (HPSO3^2-) (derived from the Ogston "Competition Factor") (Ogston, A. G., Holiday, E. R., Philpot, J. S. L., and Stocken, L. A. Trans.Faraday Soc. 44:45-52, 1948).
# The slope of the linear regression equation through the 5 nitrogen and oxygen nucleophiles gives a Swain-Scott selectivity constant, s, equal to 1.79, by Eq. A, shown in FIG. 1:
# (§5) ^a By competition between S2 O3^2- and NBP log(kS
# (§6) /knbp) or N3^- and NBP log(kN /knbp ) at
# (§7) 37° C. and 10 h, in 52% aqueous acetone, using initial
# (§8) concentrations of 0.0435 mM and 0.0217 mM of 2chloroethyl phenyl selenone
# (§9) and nornitrogen mustard, respectively, as described. Values, experimental
# [5] = Swain-Scott product competition of sulfur nucleophiles vs NBP (second-order rate constant ratios); assay type: physicochemical
# Source text: as §3, §4
# Extrapolation of Eq. A predicts that the log (ky /knbp) values for the thiol nucleophiles should have ranged from 3 to 5. However, the measured ratios of second-order rate constants were approximately 100-fold lower than this expectation. Also, the linear regression relationship, Eq. B (FIG. 1), for correlation of log (ky /knbp) values vs. nCH3 Br constants gave a sulfur nucleophile selectivity constant, s, equal to 0.84, approximately one-half of the value for reaction with nitrogen and oxygen nucleophiles:
# as §5, §6, §7, §8, §9
# L1210/0 = assay: Cytotoxicity, 48-hr exposure of L1210/0 leukemia cells; assay type: cell-based, murine; conditions: Mus musculus, L1210/0; 48-hr exposure; read-out: IC50 L1210/0
# Source text: as §1, §2
# [6] = IC50 divided by IC50 for HCT116
structure (smiles),measurement,setting,value
COc1ccc([Se](=O)(=O)CCCl)cc1 [2-chloroethyl 4-methoxy-phenyl selenone],alkylating activity in the FIG. 1 experiments,[1],103%
same,IC50,HCT116,1.01 µg/mL
same,Ratio of IC50s (L1210/L-PAM vs L1210/0),L1210/L-PAM,0.9
same,IC50,"L1210/L-PAM; Mus musculus, L1210/LPAM, read-out: IC50 L1210/L-PAM",360 nM
same,alkylating activity reported (Kang and Spears 1990),[2],100%
same,IC50,"HCT/VM46; Homo sapiens, VM26 resistant, data provided by Bristol-Myers Laboratories",0.42 µg/mL
same,ratio of IC50 values HCT/VM46 vs HCT116,HCT/VM46; [6],0.4
same,IC50,"HCT/VP35; Homo sapiens, HCT/VP35, VP16 resistant, data provided by Bristol-Myers Laboratories",0.6 µg/mL
same,ratio of IC50 values HCT/VP35 vs HCT116,HCT/VP35; [6],0.6
same,Growth delay,"[3]; 0.5 mg/kg daily i.p., Days 1-5 (total 2.5 mg/kg), Ex. 5",0 days
same,Growth delay,"[3]; 1.0 mg/kg daily i.p., Days 1-5 (total 5 mg/kg), Ex. 6, Ex. 9",0 days
same,Growth delay,"[3]; 2.0 mg/kg daily i.p., Days 1-5 (total 10 mg/kg), Ex. 7, Ex. 10",3 days
same,Growth delay,"[3]; 4.0 mg/kg daily i.p., Days 1-5 (total 20 mg/kg), Ex. 8, Ex. 11",7 days
same,relative antitumor effectiveness,[3]; vs. parent 2-chloroethyl phenyl selenone,less effective than the parent 2-chloroethyl phenyl selenone
same,"Swain-Scott selectivity constant, s (nitrogen and oxygen nucleophiles)","[4]; 5 nitrogen and oxygen nucleophiles, Eq. A, FIG. 1",1.79
same,susceptibility to aqueous hydrolysis,[4]; from intercept of Eq. A,extremely low susceptibility
same,log (ky/knbp) at n=3.6,[4]; n=3.6 (pyridine),nearly zero
same,"intercept of Eq. A, log (ky/knbp) vs. nCH3Br","[4]; nitrogen and oxygen nucleophiles, Eq. A, listed as CEMOS",6.40
same,selectivity within the thiol series,[5],abnormally low
same,measured ratios of second-order rate constants lower than expectation,[5]; sulfur nucleophiles vs. extrapolation of Eq. A,approximately 100 fold
same,"sulfur nucleophile selectivity constant, s","[5]; sulfur nucleophiles, Eq. B, FIG. 1",0.84
same,IC50,L1210/0,360 nM
